Measured values reported in paper PMC8152782, “Synthesis and evaluation of bis(imino)anthracene derivatives as G-quadruplex ligands” (RSC Medicinal Chemistry, 2021).
Like-named read-outs stand apart in the source and are kept apart here.

Columns and labels:
d(TTGGGTT)4 [1] = experiment: NMR titration of ligands with G-quadruplex oligonucleotide; assay type: binding; settings: for Difference from 11.55 ppm (ppm) G3NH: 1H NMR chemical shift difference of G-quadruplex peak G3NH on ligand addition; for Difference from 11.22 ppm (ppm) G4NH: 1H NMR chemical shift difference of G-quadruplex peak G4NH on ligand addition; for Difference from 10.86 ppm (ppm) G5NH: 1H NMR chemical shift difference of G-quadruplex peak G5NH on ligand addition; for Difference from 1.58 ppm (ppm) T6CH3: 1H NMR chemical shift difference of G-quadruplex peak T6CH3 on ligand addition; for Difference from 7.23 ppm (ppm) T6H6/8: 1H NMR chemical shift difference of G-quadruplex peak T6H6/8 on ligand addition; for Δδ (ppm): G quadruplex chemical shift difference
Method: Compounds 2a–2e were evaluated for G-quadruplex interaction using NMR titration studies with d(TTGGGTT)4 with intercalation comparisons made against doxorubicin and nemorubicin (see ESI ^† S1). […] We also see the peaks for T6 (methyl, aromatic and ribose) shifting to a lower field in accord with the up-field shift of the G5 peaks. This change is explained by the formation of a complex between the ligand and the tetrad formed at G5, which pushes the T6 unit away from the guanine π-system. This intercalation framework agreed with ESI/MS carried out which illustrated a 1 : 1 complex.[17]
Maximum line broadening occurs at a ratio of 1 : 1 drug to G-quadruplex and chemical shift difference changing up to 1 : 1 with the bound and unbound peaks being present. […]
This oligonucleotide solvent mix was then micro-pipetted at a volume of 0.6ml into NMR tubes. Stock solutions of drug compounds in DMSO-d6 were used to make up the molar ratios of 0.125:1, 0.25:1, 0.5:1 and 1:1 drug to oligomer.
A non-active drug (TC102) and DMSO on its own were added as controls to validate that the effects on the spectra were from cytotoxic elements of the drug compounds rather than the effects from DMSO or addition of compound, which could change environment, pH or shimming of NMR instrument.
Spectra were acquired at 300 K using a Bruker Avance III 600MHz FT‐NMR. The WATERNOESY parameter set which executes the pulse sequence noesygppr1d (Bruker, size […]
experiments with a pre-saturation delay during relaxation and mixing time (experiment time:
14 min 44 sec). With this pulse sequence, all non-exchangeable protons are detected in the deuterated D2O/H2O buffer solution. T1 relaxation experiments were acquired for d1 calibration with a modified version of the zggpw5 pulse sequence. With a saturation recovery […]
pulse and using water suppression (Bruker, size of fid 65536/11 F2/F1, […]
(experimental time 1 h 4 min 6 sec).
Bruker Topspin 3.5 pl7 was used for assignment of peaks, manual phasing, baseline correction and manual integration. Manual integration was done to ensure bias and slope was correct and that the integrals were all of the same width. Calculation of chemical shift change done through built in top spin distance measurements between peaks.

HeLa cells = experiment: Presto blue cell viability assay, HeLa cells; assay type: cell-based, Human; settings: 24 hour incubation, n = 3
Method: Fig. 3 Cell culture, presto blue assay results for 2a, 2b, 2c, 2d, 2e. The data shown is after 24 hour incubation of drug treated HeLa cells. Top chart illustrates mean and SEM of HeLa cell viability at concentrations 100 to 1 μM with positive control (doxorubicin (N2)). In the top charts, values are normalized to negative control (DMSO) at a value of 1 (cell viability). The bottom charts then show the normalized absorbance percentage to the negative control (percentage cell viability) of log inhibitor concentration (multiplied by 10 to account for 1 μM concentration) IC50 values and R squared values are included in the chart. Error bars indicates standard error of mean from n = 3 experiments.
Compounds 2a–2e were subsequently tested against a HeLa cancer cell line (HeLa, American Type Culture Collection (ATCC) (ATCC® CCL-2™)) and they were all prepared in 100, 30, 10 and 1 μM concentrations so that IC50 values could be calculated to establish whether drugs were cytotoxic to HeLa cells (see ESI ^† S1).
Cell suspension (200μl) containing 5000 healthy HeLa cells was seeded in 96-well plates (BDFalcon, Franklin Lakes, NJ) and allowed to attach and stabilize overnight at 37 °C with 5%
CO2. Aspiration of media and rinsing solution was done through pipetting off liquid. Cell viability was then tested with PrestoBlue assay.The presto blue assay was carried out in light sensitive conditions. 100μl of PrestoBlue solution (10% in medium) was added to each well and the plates were incubated at 37 °C for 1 hour. After incubation time, the change in florescence was measured at 570/600 nm using a Spectra Max fluorescence multi-well plate reader.
Dissociation constants were calculated using the curve-fitting software Graphpad Prism 8.
Incubation was done using Thermofisher Steri-Cycle CO2 Incubators and for plate reading Thermofisher Epoch Microplate Spectrophotometer was used. Centrifugation was done by Thermo Scientific Sorvall ST 40 Centrifuge Series.
Commercially available DMEM (Dulbecco’s Modified Eagle Medium- low glucose), including sodium pyruvate and […], 500 mL, was obtained from Gibco, USA. All procedures carried out under sterile conditions, 94 mL of media was taken and the required volume of supplements (10 % Fetal Bovine Serum (FBS), 2 mM/mL Glutamine, 100 U/mL penicillin and 100 µg/mL streptomycin.) were added.
Cell Line and Cell Culture Conditions
Human cervical cancer cell lines (HeLa) were obtained from the American Type Culture Collection (ATCC) (ATCC® CCL-2™). HeLa cells were cultured in Dulbecco’s Eagle Modified Medium low glucose (DMEM) containing 10 % Fetal Bovine Serum (FBS), 2 mM/mL Glutamine, 100 U/mL penicillin and 100 µg/mL streptomycin.
%viable cells = 1 ‒ Number of blue cells x 100 […]
Cryovials were taken from the liquid nitrogen tank and thawed quickly at 37 °C. After that, the cell suspension was transferred to a 15 mL tube and 5 mL of the medium was added into the cell suspension drop by drop with gentle shaking. Centrifugation was done at 1500rpm for 5 min and then supernatant was discarded. After the pellet was resuspended with medium, they were seeded to T-25 flasks. Subsequent to 12 hours incubation, the media was removed and washed with DPBS (1X) (pH:7.4) containing 10 mM sodium dibasic phosphate, 2.7 mM KCI, 2 mM Potassium phosphate,137 mM NaCI. Fresh media was added to the cell monolayer a […]
Assays were carried out using a 96 well plate. This 96-well plate contains one blank, 3 controls which contains cells including a negative control with media, one vehicle control which is DMSO and medium solutions, and a positive control of Doxorubicin (200µL) and media. Drugs were prepared in 100, 30, 10, 1 µM concentrations to make 8 seeded well plates in total which were done in triplicate. All drugs were prepared in DMSO and then diluted in media to give 5µL of DMSO max in 100µM treatments which is controlled by vehicle with a DMSO volume

d(TTGGGTT)4 [2] = tested on: d(TTGGGTT)4; parameters: method as in PMID 26922833; settings: G quadruplex chemical shift difference; cited from earlier work

Row | IC50 (HeLa cells; Homo sapiens, HeLa, 24 h) [µM] | IC50 (HeLa cells) [µM] | SMILES | Difference from 11.55 ppm (ppm) G3NH (d(TTGGGTT)4 [1]) [ppm] | Difference from 11.22 ppm (ppm) G4NH (d(TTGGGTT)4 [1]) [ppm] | Difference from 10.86 ppm (ppm) G5NH (d(TTGGGTT)4 [1]) [ppm] | Difference from 1.58 ppm (ppm) T6CH3 (d(TTGGGTT)4 [1]) [ppm] | Difference from 7.23 ppm (ppm) T6H6/8 (d(TTGGGTT)4 [1]) [ppm] | Δδ (ppm) (d(TTGGGTT)4 [1]) | Δδ (ppm) (d(TTGGGTT)4 [2])
1 | 18.1 |  | C(=N\Cc1ccc2c(c1)OCO2)/c1c2ccccc2c(/C=N/Cc2ccc3c(c2)OCO3)c2ccccc12 [Compound 2a] | −0.04 | −0.08 | −0.2 | 0.09 | 0.17 | 0.2 | 
2 | 24.4 |  | C(=N\CCCN1CCOCC1)/c1c2ccccc2c(/C=N/CCCN2CCOCC2)c2ccccc12 [Compound 2b] | −0.066 | −0.135 | −0.34 | 0.093 | 0.22 | 0.34 | 
3 | 30.5 | 30.6 | C(=N\CCc1c[nH]c2ccccc12)/c1c2ccccc2c(/C=N/CCc2c[nH]c3ccccc23)c2ccccc12 [Compound 2c] | −0.06 | −0.115 | −0.25 | 0.157 | 0.126 | 0.25 | 
4 | 24 | 23.8 | C(=N\CCN1CCCCC1)/c1c2ccccc2c(/C=N/CCN2CCCCC2)c2ccccc12 [Compound 2d] | −0.03 | −0.07 | −0.13 | 0.094 | 0.16 | 0.13 | 
5 | 20.5 |  | Cc1cnc(/N=C/c2c3ccccc3c(/C=N/c3ncc(C)s3)c3ccccc23)s1 [Compound 2e] | −0.056 | −0.11 | −0.24 | 0.146 | 0.19 | 0.24 | 
6 |  |  | COc1cccc2c1C(=O)c1c(O)c3c(c(O)c1C2=O)C[C@@](O)(C(=O)CO)C[C@@H]3O[C@H]1C[C@H](N)[C@H](O)[C@H](C)O1 [Doxorubicin] |  |  |  |  |  |  | 0.31
7 |  |  | COc1cccc2c1C(=O)c1c(O)c3c(c(O)c1C2=O)C[C@@](O)(C(=O)CO)C[C@@H]3O[C@H]1C[C@H](N2CCO[C@H](OC)C2)[C@H](O)[C@H](C)O1 [Nemorubicin] |  |  |  |  |  |  | 0.31
